Source: PubChem BioAssay AID220 (DTP/NCI, 2004)
“And” between values parts separate entries of the source, which are not always exact repeats. Identical values can stand only once. Results filed as inconclusive are left out.

System: CD8F1 mice, subcutaneous mammary adenocarcinoma, T/C%
Assay: NCI In Vivo Anticancer Drug Screen. Data for tumor model Mammary Adenocarcinoma CD8F1 (subcutaneous) in CD8F1
Conditions: higher = larger tumour
Procedure, shortened: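 Compound-treated versus vehicle-treated mice with transplantable tumors; survival or tumor size compared as T/C.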

[1] = endpoint: median tumor weight (est.), dose: 4.0 mg/kg/injection, schedule: Q07DX005 (ip), vehicle: suspension in saline
[2] = endpoint: median tumor weight (est.), dose: 8.0 mg/kg/injection, schedule: Q07DX005 (ip), vehicle: suspension in saline
[3] = endpoint: median tumor weight (est.), dose: 25.0 mg/kg/injection, schedule: Q07DX005 (ip), vehicle: saline
[4] = endpoint: median tumor weight (est.), dose: 100.0 mg/kg/injection, schedule: Q07DX005 (ip), vehicle: saline
[5] = endpoint: median tumor weight (est.), dose: 200.0 mg/kg/injection, schedule: Q07DX005 (ip), vehicle: saline
[6] = endpoint: median tumor weight (est.), dose: 400.0 mg/kg/injection, schedule: Q07DX005 (ip), vehicle: saline
[7] = endpoint: median tumor weight change, dose: 125.0 mg/kg/injection, schedule: Q01DX001 (ip), vehicle: saline with Tween-80
[8] = endpoint: median tumor weight change, dose: 250.0 mg/kg/injection, schedule: Q01DX001 (ip), vehicle: saline with Tween-80
[9] = endpoint: median tumor weight change, dose: 500.0 mg/kg/injection, schedule: Q01DX001 (ip), vehicle: saline with Tween-80
[10] = endpoint: median tumor weight (est.), dose: 4.0 mg/kg/injection, schedule: Q07DX005 (ip), vehicle: saline
[11] = endpoint: median tumor weight change, dose: 62.5 mg/kg/injection, schedule: Q01DX001 (ip), vehicle: saline with Tween-80
[12] = endpoint: median tumor weight change, dose: 1000.0 mg/kg/injection, schedule: Q01DX001 (ip), vehicle: saline with Tween-80

For N[C@@H](Cc1ccc(N(CCCl)CCCl)cc1)C(=O)O, the T/C (endpoint: mean tumor weight, dose: 1.25 mg/kg/injection, schedule: Q01DX009 (ip), vehicle: saline) was 10 % of control, the T/C (endpoint: mean tumor weight, dose: 2.5 mg/kg/injection, schedule: Q01DX009 (ip), vehicle: saline) was 3 % of control and the T/C (endpoint: mean tumor weight, dose: 4.0 mg/kg/injection, schedule: Q07DX006 (ip), vehicle: saline) was 12 % of control. The T/C (endpoint: mean tumor weight, dose: 5.0 mg/kg/injection, schedule: Q07DX006 (ip), vehicle: saline) was 3 % of control, the T/C (endpoint: mean tumor weight, dose: 8.0 mg/kg/injection, schedule: Q07DX006 (ip), vehicle: saline) was 1 % of control and the T/C (endpoint: median tumor weight (est.), dose: 1.0 mg/kg/injection, schedule: Q07DX005 (ip), vehicle: Klucel (hydroxypropylcellulose) (HPC)) was 91 % of control. For the same compound, the T/C (endpoint: median tumor weight (est.), dose: 1.0 mg/kg/injection, schedule: Q07DX005 (ip), vehicle: suspension in saline) was 60 % of control, the T/C (endpoint: median tumor weight (est.), dose: 2.0 mg/kg/injection, schedule: Q01DX001 (ip), vehicle: suspension in saline) was 93 % of control and 114 % of control and the T/C (endpoint: median tumor weight (est.), dose: 2.0 mg/kg/injection, schedule: Q07DX005 (ip), vehicle: Klucel (hydroxypropylcellulose) (HPC)) was 42 % of control. The T/C (endpoint: median tumor weight (est.), dose: 3.0 mg/kg/injection, schedule: Q07DX005 (ip), vehicle: suspension in saline) was 6 % of control, the T/C (endpoint: median tumor weight (est.), dose: 4.0 mg/kg/injection, schedule: Q01DX001 (ip), vehicle: suspension in saline) was 62 % of control and 70 % of control and the T/C (endpoint: median tumor weight (est.), dose: 4.0 mg/kg/injection, schedule: Q07DX005 (ip), vehicle: Klucel (hydroxypropylcellulose) (HPC)) was 16 % of control. For the same compound, the T/C [1] was 12 % of control, the T/C (endpoint: median tumor weight (est.), dose: 5.0 mg/kg/injection, schedule: Q07DX005 (ip), vehicle: suspension in saline) was 1 % of control and the T/C (endpoint: median tumor weight (est.), dose: 5.3 mg/kg/injection, schedule: Q01DX001 (ip), vehicle: suspension in saline) was 15 % of control. The T/C (endpoint: median tumor weight (est.), dose: 8.0 mg/kg/injection, schedule: Q07DX005 (ip), vehicle: Klucel (hydroxypropylcellulose) (HPC)) was 9 % of control, the T/C [2] was 1 % of control and the T/C (endpoint: median tumor weight (est.), dose: 12.0 mg/kg/injection, schedule: Q01DX001 (ip), vehicle: suspension in saline) was 7 % of control. The T/C (endpoint: median tumor weight (est.), dose: 16.0 mg/kg/injection, schedule: Q01DX001 (ip), vehicle: suspension in saline) was 8 % of control and 18 % of control, the T/C (endpoint: median tumor weight (est.), dose: 18.0 mg/kg/injection, schedule: Q01DX001 (ip), vehicle: suspension in saline) was 7 % of control and the T/C (endpoint: median tumor weight change, dose: 3.0 mg/kg/injection, schedule: Q01DX001 (ip), vehicle: saline) was 72 % of control. The T/C (endpoint: median tumor weight change, dose: 5.0 mg/kg/injection, schedule: Q01DX001 (ip), vehicle: saline) was 4 % of control, the T/C (endpoint: median tumor weight change, dose: 10.0 mg/kg/injection, schedule: Q01DX001 (ip), vehicle: saline) was -6 % of control and the T/C (endpoint: median tumor weight change, dose: 20.0 mg/kg/injection, schedule: Q01DX001 (ip), vehicle: saline) was -82 % of control.

With O=c1nc(-c2ccco2)sc(=O)[nH]1 the T/C (endpoint: median tumor weight change, dose: 31.25 mg/kg/injection, schedule: Q01DX001 (ip), vehicle: Klucel (hydroxypropylcellulose) (HPC)) was 123 % of control, the T/C (endpoint: median tumor weight change, dose: 62.5 mg/kg/injection, schedule: Q01DX001 (ip), vehicle: Klucel (hydroxypropylcellulose) (HPC)) was 63 % of control and the T/C (endpoint: median tumor weight change, dose: 125.0 mg/kg/injection, schedule: Q01DX001 (ip), vehicle: Klucel (hydroxypropylcellulose) (HPC)) was 120 % of control. The T/C (endpoint: median tumor weight change, dose: 250.0 mg/kg/injection, schedule: Q01DX001 (ip), vehicle: Klucel (hydroxypropylcellulose) (HPC)) was 53 % of control.

For OCC1OC(n2cnc3c(Cl)ncnc32)C(O)C1O (stereo not drawn), the T/C (endpoint: median tumor weight (est.), dose: 12.5 mg/kg/injection, schedule: Q07DX005 (ip), vehicle: saline) was 90 % of control, the T/C [3] was 26 % of control and the T/C [4] was 28 % of control. For the same compound, the T/C [5] was 71 % of control and the T/C [6] was 115 % of control.

ClCC[N+]12CC[N+](CCCl)(CC1)C2 (tested in a mixture with another compound) was tested, and the T/C [3] was 75 % of control, the T/C (endpoint: median tumor weight (est.), dose: 50.0 mg/kg/injection, schedule: Q07DX005 (ip), vehicle: saline) was 67 % of control and the T/C [4] was 93 % of control. The T/C [5] was 43 % of control, the T/C [6] was 43 % of control and the T/C (endpoint: median tumor weight (est.), dose: 600.0 mg/kg/injection, schedule: Q07DX005 (ip), vehicle: saline) was 12 % of control.

With Cc1ccc(N)c(N)c1 the T/C [7] was 65 % of control, the T/C [8] was 48 % of control and the T/C [9] was 75 % of control.

For COC(=O)C[C@](O)(CCCC(C)(C)O)C(=O)O[C@@H]1C(OC)=C[C@]23CCCN2CCc2cc4c(cc2[C@H]13)OCO4, the T/C (endpoint: median tumor weight (est.), dose: 0.25 mg/kg/injection, schedule: Q07DX005 (ip), vehicle: saline) was 59 % of control, the T/C (endpoint: median tumor weight (est.), dose: 0.5 mg/kg/injection, schedule: Q07DX005 (ip), vehicle: saline) was 57 % of control and 60 % of control and the T/C (endpoint: median tumor weight (est.), dose: 1.0 mg/kg/injection, schedule: Q07DX005 (ip), vehicle: saline) was 61 % of control and 78 % of control. The T/C (endpoint: median tumor weight (est.), dose: 2.0 mg/kg/injection, schedule: Q07DX005 (ip), vehicle: saline) was 14 % of control and 21 % of control and the T/C [10] was 7 % of control.

O=C(N[C@H](CO)[C@H](O)c1ccc([N+](=O)[O-])cc1)C(Cl)Cl was tested, and the T/C [11] was 102 % of control, the T/C [7] was 91 % of control and the T/C [8] was 92 % of control. The T/C [9] was 73 % of control and the T/C [12] was 98 % of control.

In the case of CCCCCCCC(=O)[O][Hg][CH2]C1COC([CH2][Hg][O]C(=O)CCCCCCC)CO1 (stereo not drawn), the T/C (endpoint: median tumor weight (est.), dose: 3.0 mg/kg/injection, schedule: Q07DX005 (ip), vehicle: saline with Tween-80) is reported as 90 % of control, the T/C (endpoint: median tumor weight (est.), dose: 6.0 mg/kg/injection, schedule: Q07DX005 (ip), vehicle: saline with Tween-80) is reported as 95 % of control and the T/C (endpoint: median tumor weight (est.), dose: 6.25 mg/kg/injection, schedule: Q07DX005 (ip), vehicle: saline with Tween-80) is reported as 100 % of control. The T/C (endpoint: median tumor weight (est.), dose: 12.0 mg/kg/injection, schedule: Q07DX005 (ip), vehicle: saline with Tween-80) was 80 % of control, the T/C (endpoint: median tumor weight (est.), dose: 12.5 mg/kg/injection, schedule: Q07DX005 (ip), vehicle: saline with Tween-80) was 50 % of control and the T/C (endpoint: median tumor weight (est.), dose: 50.0 mg/kg/injection, schedule: Q07DX005 (ip), vehicle: saline with Tween-80) was 100 % of control.

With NC(Cc1ccc(N(CCCl)Cc2ccccc2)cc1)C(=O)O (stereo not drawn) the T/C (endpoint: median tumor weight (est.), dose: 6.25 mg/kg/injection, schedule: Q07DX005 (ip), vehicle: distilled water + Tween-80) was 84 % of control, the T/C (endpoint: median tumor weight (est.), dose: 12.5 mg/kg/injection, schedule: Q07DX005 (ip), vehicle: distilled water + Tween-80) was 60 % of control and the T/C (endpoint: median tumor weight (est.), dose: 25.0 mg/kg/injection, schedule: Q07DX005 (ip), vehicle: distilled water + Tween-80) was 79 % of control. For the same compound, the T/C (endpoint: median tumor weight (est.), dose: 50.0 mg/kg/injection, schedule: Q07DX005 (ip), vehicle: distilled water + Tween-80) was 25 % of control.

For COc1cc([C@@H]2c3cc4c(cc3[C@@H](OC3OC5CO[C@@H](c6cccs6)OC5C(O)C3O)[C@H]3COC(=O)[C@H]23)OCO4)cc(OC)c1O (stereo partly drawn), the T/C (endpoint: median tumor weight (est.), dose: 2.0 mg/kg/injection, schedule: Q07DX005 (ip), vehicle: suspension in saline) was 90 % of control and 103 % of control, the T/C [10] was 23 % of control and the T/C [1] was 87 % of control and 100 % of control. For the same compound, the T/C [2] was 81 % of control and 92 % of control, the T/C (endpoint: median tumor weight (est.), dose: 16.0 mg/kg/injection, schedule: Q07DX005 (ip), vehicle: saline) was 47 % of control and the T/C (endpoint: median tumor weight (est.), dose: 32.0 mg/kg/injection, schedule: Q07DX005 (ip), vehicle: saline) was 25 % of control. For the same compound, the T/C (endpoint: median tumor weight (est.), dose: 32.0 mg/kg/injection, schedule: Q07DX005 (ip), vehicle: suspension in saline) was 51 % of control and 57 % of control, the T/C (endpoint: median tumor weight change, dose: 20.0 mg/kg/injection, schedule: Q01DX001 (ip), vehicle: suspension in saline) was 96 % of control and the T/C (endpoint: median tumor weight change, dose: 40.0 mg/kg/injection, schedule: Q01DX001 (ip), vehicle: suspension in saline) was 74 % of control. For the same compound, the T/C (endpoint: median tumor weight change, dose: 80.0 mg/kg/injection, schedule: Q01DX001 (ip), vehicle: suspension in saline) was 91 % of control, the T/C (endpoint: median tumor weight change, dose: 160.0 mg/kg/injection, schedule: Q01DX001 (ip), vehicle: suspension in saline) was 117 % of control and the T/C (endpoint: median tumor weight change, dose: 320.0 mg/kg/injection, schedule: Q01DX001 (ip), vehicle: suspension in saline) was 80 % of control.

In the case of S=C1CCCCN1, the T/C (endpoint: median tumor weight change, dose: 37.5 mg/kg/injection, schedule: Q01DX001 (ip), vehicle: distilled water + Tween-80 + alcohol) is reported as 73 % of control, the T/C (endpoint: median tumor weight change, dose: 75.0 mg/kg/injection, schedule: Q01DX001 (ip), vehicle: distilled water + Tween-80 + alcohol) is reported as 111 % of control and the T/C (endpoint: median tumor weight change, dose: 150.0 mg/kg/injection, schedule: Q01DX001 (ip), vehicle: distilled water + Tween-80 + alcohol) is reported as 86 % of control.

For C=C(C)C1C2CC3(C)C4(CO4)C4OC4C3(O)C1C(=O)O2 (stereo not drawn), the T/C (endpoint: median tumor weight change, dose: 1.25 mg/kg/injection, schedule: Q01DX001 (ip), vehicle: Klucel (hydroxypropylcellulose) (HPC)) was 85 % of control.

C=COC(=O)C(Cc1ccccc1)NC(=O)OCc1ccccc1 (stereo not drawn) was tested, and the T/C [11] was 103 % of control, the T/C [7] was 58 % of control and the T/C [8] was 46 % of control. The T/C [9] was 33 % of control and the T/C [12] was 75 % of control.
